Some test systems named below: A498; BT-549; CAKI-1; CCRF-CEM; HCC 2998; HCT-116; HL-60; HOP-92; HT-29; Hs-578T; K562; LOX IMVI; MDA-N; NCI-H522; OVCAR-8; SNB-19; SNB-75; T47D; UACC-257; UACC-62.
Common to all, as to experiment: inhibition of tumour cell growth, NCI panel, 48 h

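Following 48 hours of exposure in 96-well plates, responses at five concentrations were used to interpolate endpoints linearly. GI50 marks 50% less growth.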 Activity calls are given as the source filed them. No stated cut-off is given here; in the data, active = GI50 up to about 1.1 µM and inactive = higher.

For `Oc1cc(Cc2ccccc2)c(Cc2ccccc2)cc1O`, the GI50 with A498, in the assay on BT-549, in the assay on CAKI-1, with CCRF-CEM, in the assay on HCC 2998 and with HCT-116 was > 10 µM (inactive) throughout. Besides, the GI50 in the assay with HL-60, with HOP-92, in the assay with HT-29, in the assay on Hs-578T, in the assay on K562 and in the assay on LOX IMVI was > 10 µM (inactive) throughout. For the same molecule, the GI50 with MDA-N was 1.67 µM (inactive); with NCI-H522, > 10 µM (inactive); with OVCAR-8, > 10 µM (inactive); in the assay on SNB-19, > 10 µM (inactive); in the assay on SNB-75, 4.62 µM (inactive); with T47D it was > 10 µM (inactive). The GI50 in the assay on UACC-257 and with UACC-62 was > 10 µM (inactive) each time.
For the molecule `OC[C@H]1O[C@@H](n2cnc3c(S)ncnc32)[C@H](O)[C@@H]1O` [THIOINOSINE], the GI50 with A498 is > 2200 µM (inactive); with BT-549, > 2500 µM (inactive); with CAKI-1, > 2500 µM (inactive); with CCRF-CEM, 1120 µM (inactive); in the assay with HCC 2998 it was > 2500 µM (inactive); in the assay on HCT-116, 2390 µM (inactive). The GI50 in the assay on HL-60 was > 1760 µM (inactive); in the assay with HOP-92, 1050 µM (inactive); in the assay on HT-29, 2260 µM (inactive); with Hs-578T, > 2440 µM (inactive); in the assay on K562, 1290 µM (inactive); with LOX IMVI it was 1840 µM (inactive). Besides, the GI50 is > 2310 µM (inactive) in the assay with MDA-N; 2160 µM (inactive) in the assay with NCI-H522; > 2440 µM (inactive) in the assay on OVCAR-8; > 1580 µM (inactive) in the assay on SNB-19; > 2120 µM (inactive) in the assay on SNB-75; 1830 µM (inactive) in the assay with T47D. Besides, the GI50 was > 2500 µM (inactive) in the assay on UACC-257 and 1250 µM (inactive) in the assay on UACC-62.
As to `COC(=O)C1=C(OC(=O)/C(=C/c2ccccc2)c2ccc([N+](=O)[O-])cc2)C(C(=O)OC)[C@@]2(O)[C@@H](C(=O)OC)[C@H](C)C[C@@H]1[C@@H]2C(=O)OC` (stereo not given in full), the GI50 was > 100 µM (inactive) in the assay on A498; 31.1 µM (inactive) in the assay on BT-549; > 100 µM (inactive) with CAKI-1; 12.9 µM (inactive) in the assay on CCRF-CEM; > 100 µM (inactive) in the assay on HCC 2998; > 100 µM (inactive) with HCT-116. Further, the GI50 with HL-60 was 78 µM (inactive); in the assay on HOP-92, > 100 µM (inactive); in the assay with HT-29, > 100 µM (inactive); in the assay on Hs-578T it was > 100 µM (inactive); with K562 it was > 100 µM (inactive); in the assay on LOX IMVI, > 100 µM (inactive). Further, the GI50 in the assay on MDA-N was > 100 µM (inactive); with NCI-H522, 77.3 µM (inactive); in the assay with OVCAR-8, > 100 µM (inactive); in the assay on SNB-19, > 100 µM (inactive); in the assay on SNB-75, 72.9 µM (inactive); in the assay on T47D, > 100 µM (inactive). Besides, the GI50 in the assay with UACC-257 and in the assay with UACC-62 was > 100 µM (inactive) each time.
Consider `CC(=O)N(C(=O)CC(=O)N1N=C(c2ccccc2)C(/N=N/c2ccccc2[N+](=O)[O-])C1=O)c1ccc(Cl)cc1` (stereo not given), for which the GI50 in the assay on A498, with BT-549, in the assay on CAKI-1, in the assay with CCRF-CEM, in the assay on HCC 2998 and in the assay on HCT-116 was > 10 µM (inactive) each time. The GI50 in the assay on HL-60, in the assay with HOP-92, in the assay on HT-29, in the assay with Hs-578T, in the assay with K562 and in the assay with LOX IMVI was > 10 µM (inactive) each time. Besides, the GI50 with MDA-N was > 10 µM (inactive); with NCI-H522, > 10 µM (inactive); with OVCAR-8 it was > 10 µM (inactive); in the assay on SNB-19, > 10 µM (inactive); with SNB-75 it was 9.55 µM (inactive); with T47D, > 10 µM (inactive). Also, the GI50 with UACC-257 and in the assay with UACC-62 was > 10 µM (inactive) each time.
For `CCSc1nc(COC(=O)NC)c(COC(=O)NC)n1C`, the GI50 is > 67.9 µM (inactive) in the assay on A498; > 100 µM (inactive) with BT-549; 49.5 µM (inactive) with CAKI-1; 54 µM (inactive) with CCRF-CEM; > 85.7 µM (inactive) in the assay with HCC 2998; > 100 µM (inactive) in the assay on HCT-116. Also, the GI50 was 82.6 µM (inactive) in the assay with HL-60; > 80.5 µM (inactive) with HOP-92; > 100 µM (inactive) with HT-29; > 100 µM (inactive) with Hs-578T; > 68.1 µM (inactive) with K562; > 97.1 µM (inactive) in the assay with LOX IMVI. The GI50 in the assay with MDA-N was > 100 µM (inactive); in the assay with NCI-H522, 40.6 µM (inactive); in the assay with OVCAR-8, > 100 µM (inactive); in the assay on SNB-19, > 100 µM (inactive); in the assay with SNB-75, > 100 µM (inactive); with T47D, > 100 µM (inactive). The GI50 with UACC-257 was > 100 µM (inactive); in the assay with UACC-62, 34.1 µM (inactive).
Regarding `CCOP(=O)(OCC)Oc1c(OC)c2[nH]c(C(=O)OC)cc2c2c(C(=O)O)c[nH]c12`, the GI50 in the assay with A498, with BT-549, in the assay on CAKI-1, with CCRF-CEM, in the assay with HCC 2998 and in the assay on HCT-116 was > 100 µM (inactive) throughout. The GI50 in the assay with HL-60, in the assay with HOP-92, in the assay with HT-29, in the assay on Hs-578T, with K562 and in the assay with LOX IMVI was > 100 µM (inactive) each time. Besides, the GI50 in the assay on MDA-N, in the assay with NCI-H522, in the assay on OVCAR-8, in the assay with SNB-19, in the assay on SNB-75 and in the assay on T47D was > 100 µM (inactive) in each case. In addition, the GI50 in the assay on UACC-257 and in the assay with UACC-62 was > 100 µM (inactive) each time.
Consider `O=C(NCCCNCCCNC(=O)c1cc(-c2ccccc2)nc2ccccc12)c1cc(-c2ccccc2)nc2ccccc12`, for which the GI50 is 1.93 µM (inactive) in the assay on A498; 10.2 µM (inactive) in the assay with BT-549; 1.9 µM (inactive) in the assay with CAKI-1; 1.63 µM (inactive) in the assay on CCRF-CEM; 0.834 µM (active) in the assay with HCC 2998; 1.73 µM (inactive) in the assay on HCT-116. The GI50 is 1.4 µM (inactive) with HL-60; 2.02 µM (inactive) with HOP-92; 1.75 µM (inactive) in the assay with HT-29; 2.35 µM (inactive) in the assay on Hs-578T; 1.79 µM (inactive) in the assay on K562; 1.8 µM (inactive) in the assay with LOX IMVI. The GI50 with MDA-N is 1.89 µM (inactive); with NCI-H522, 2.01 µM (inactive); in the assay with OVCAR-8, 2.56 µM (inactive); in the assay with SNB-19 it was 1.72 µM (inactive); in the assay on SNB-75 it was 1.49 µM (inactive); with T47D, 2.02 µM (inactive). For the same molecule, the GI50 with UACC-257 is 1.97 µM (inactive); in the assay with UACC-62 it was 1.93 µM (inactive).

These data come from ChEMBL document CHEMBL1201862, “PubChem BioAssay data set” (2004).
